According to patent US7030087B2, “Synthetic approach to designed chemical structures” (priority 1996, dated 2006):

Columns and labels:
[1] = tested on: EC (endothelial cells); experiment: EC proliferation, 3[H]thymidine incorporation assay; type: cell-based
Protocol: (§1) Since the in vivo situation of tumor associated EC involves the low expression or even absence of ICAM-1, the next set of experiments aimed to study the ability to reinduce ICAM-I expression after bFBF preincubation. […] In these experiments, HUVEC were pretreated for 3 days with bFGF, subsequently PF4 was added for 3 days and, where indicated in the last 16 hours of culture 4 ng/ml TNFα was added. Human umbilical vein derived endothelial cells (HUVEC) were harvested from normal human umbilical cords by perfusion with 0.125% trypsin/EDTA as described previously. Cells were cultured in fibronectin (FN) coated tissue culture flasks in culture medium (RPMI-1640 with 20% human serum (HS), supplemented with 2 mM glutamine and 100 U/ml penicillin and 0.1 mg/ml streptomycin). Immunofluorescence using indirect PE-conjugated reagents required three separate incubations. 1×10^5 EC were fixed for 1 hour in 1% paraformaldehyde, resuspended in 20 μl appropriately diluted Mab and incubated for 1 hour on ice. Subsequently, cells were washed two times in PBS/BSA (0.1%) and incubated for another 30 minutes with biotinylated rabbit-anti-mouse Ig (Dako, Glostrup, Denmark). After another 2 washings, cells were incubated with streptavidin-phycoerythrin conjugate (Dako). Stained cells were analyzed on a FACScan flowcytometer. Data analysis was performed using PCLysys software (Becton Dickinson, Mountain View, Calif.). Statistical significance of observed differences was determined using the Student's t-test.
EC proliferation was measured using a ^3[H]thymidine incorporation assay. EC were seeded in flatbottomed 96-well tissue culture plates (5000 cells/well) and grown for 3 days, in culture medium. In some cultures the proliferation of EC was enhanced by incubation with 10 ng/ml bFGF. During the list 6 hours of the assay, the culture was pulsed with 0.5 μCi [methyl-^3H]thymidine/well. Results are expressed as the arithmetic mean counts per minute (cpm) of triplicate cultures.

[2] = tested on: ICAM-1; experiment: ICAM-1 expression on endothelial cells (immunofluorescence, FACScan); type: cell-based, human; details: for bFGF mediated downregulation of ICAM-1 (in words): 10 ng/ml bFGF for 3 days, 100 μg/ml added simultaneously
Protocol: In a first series of experiments, PF4 and βpep peptides were tested for their ability to prevent bFGF (fibroblast growth factor) mediated downregulation of ICAM-1. […] Simultaneously 100 μg/ml of each PF4, βpep-14, βpep-16, or medium was added. Mean ICAM-1 fluorescence intensity values were determined.
as §1
The energy of EC to stimulation with inflammatory cytokines was the subject of a next series of experiments. For these experiments, HUVEC (human vascular endothelial cells) were pretreated with 10 ng/ml bFGF for 3 days. Subsequently, cells are subcultured for 3 days with […] in the presence of PF4. For the last 16 hours of the culture 4 ng/ml TNFα was added to induce upregulation of ICAM-1. […] The regulation of ICAM-1 at the protein level was confirmed in Northern blot analysis for detection of ICAM-1 message. In these experiments, HUVEC were cultured for 3 days with bFGF and treated for the last 4 and 24 hours with PF4 (100 μg/ml). TNFα was added 2 hours before isolation of RNA. RNA from a subconfluent EC cultures (75 cm^2 Petri-dishes) incubated with bFGF for different time-points was isolated using an RNA-zol kit (Campro Scientific, Houston, Tex.). Total RNA (10 μg) for each sample was separated in a 0.8% formaldehyde-denaturing gel, transferred to nitrocellulose (Hybond N+, Amersham International, Amersham, UK) and hybridized to a ^32P-labelled 1.9 Kb c-DNA probe, containing the functional sequence of the human ICAM-1 gene (a gift from Dr. B. Seed). Membranes were washed at a high stringency in 0.2×SSC, 0.1% SDS at 50° C. for 1 hour. Filters were exposed to X-ray films (Kodak X-omat, Eastman Kodak Company, Rochester, N.Y.) using an intensifying screen at −80° C. for not less than 12 hr. Autoradiograms were subjected to scanning using a laser densitometer (Model GS670, Bio-Rad, Hercules, Calif.) and data were analysed with the Molecular Analyst PC™ software. The intensity of the major ICAM-1 mRNA transcript was normalized with respect to actin mRNA expression used as a control.

[3] = tested on: endotoxin from E. coli 055:B5; experiment: Limulus amoebocyte lysate assay (E-TOXATE), endotoxin neutralization; type: biochemical; details: Table 4; for Endotoxin Neutralization, % neutralization: 5.0 × 10^−6 M Peptide, 0.02 U (0.2 pg) endotoxin from E. coli 055:B5
Protocol: The peptides were tested for their ability to neutralize endotoxin. Quantitative endotoxin activities for these peptides were measured by Limulus amoebocyte lysate assay.
Limulus amoebocyte lysate assay: The ability of synthetic peptides to neutralize endotoxin was detected with the E-TOXATE kit manufactured by Sigma Chemicals (St. Louis, Mo.). […] Peptide or B/PI was incubated with LPS at room temperature for 5 min in 100 ul of a 1:2 dilution of pyrogen-free saline (pH 6.4). The reaction was started by addition of 100 ul of amoebocyte lysate and the final volume was 200 ul. Assuming a 10,000 molecular weight for LPS, the approximate molar ration of B/PI:LPS at neutralization was 3000 to 1.
The peptides were tested according to the method provided above. […] BG38L was used as a positive control in these experiments.

[4] = tested on: P. aeruginosa; experiment: Bactericidal activity assay; type: cell-based, Pseudomonas aeruginosa type 1; details: for Bactericidal Activity, % killing: 1.2 × 10^−7 M Peptide, 5 × 105 P. aeruginosa; for Bactericidal Activity, % killing at the effective dose: at the Ed for the same peptide; for Bactericidal Activity, Ed, Effective M dose: dose at which the % in brackets was found
Source text: Bacteria: P. aeruginosa type 1 is a clinical isolate maintained in the laboratory. The isolate remains a smooth strain and was serotyped by the scheme of Homma. The Pseudomonas strain was maintained by monthly transfer on blood agar plates.
The peptides can be assayed for bactericidal activity against a variety of organisms such as Pseudomonas aeruginosa type 1, P. cepacia ATCC 25608, E. coli B, and Staphylococcus aureus 502A by standard methods.
Pseudomonas aeruginosa type 1 is a clinical isolate. The isolate remains a smooth strain and was serotyped by the scheme of Homma (Jpn. J. Exp. Med. 46:329, 1976). A rough strain, E. coli B and S. aureus 502A were obtained from Paul Quie, University of Minnesota (Minneapolis, Minn.). The characteristics of the S. aureus strain have been described by Shinefield et al. (Amer. J. Dis. Chil. 105:646, 1963). Pseudomonas cepacia ATCC 25608 can be purchased from the ATCC. S. aureus and E. coli were maintained on nutrient agar plates and the Pseudomonas strains were maintained on blood agar plates.
Pyrogen-free solutions were used throughout the assay and all methods that follow. Log phase bacteria were prepared from a culture in brain heart infusion broth (Hovde et al. Infect. Immun. 54:142–148, 1986) and bacteria were washed and resuspended in saline with adjustment to an optical density at 650 nm to provide a yield of about 3×10^8 CFU/ml. Bacteria were diluted 1:10 in 0.08M citrate phosphate buffer, pH 5.6 or pH 7.0, for use in the assay. S. aureus rapidly lost viability in the pH 5.6 buffer and was studied only at pH 7.0. Bactericidal activity was determined by dose response over peptide concentrations ranging from about […] to about 4.1×10^−9M. Bactericidal activity was determined by dose response, preferably determining LD50 by linear regression.

[5] = tested on: endothelial cells (FBHEC, HUVEC); experiment: Endothelial cell proliferation assay of βpeptides 1–24 (FIG. 7); type: cell-based
Protocol: FIG. […] FIG. 7A provides ^3H-Thymidine incorporation data for FBHEC cells and FIG. 7B provides ^3H-Thymidine incorporation data for HUVEC cells.
βpeptides 1–24 were tested in an endothelial cell proliferation assay using ^3H-thymidine incorporation. […]

[6] = expt 2 (first, r11), 1 μg/ml, 10 ng/ml bFGF, medium 29079 ± 2506
[7] = expt 2 (first, r11), 1 μg/ml, no bFGF, medium 14296 ± 2490
[8] = expt 2 (first, r11), 10 μg/ml, 10 ng/ml bFGF, medium 29079 ± 2506
[9] = expt 2 (first, r11), 10 μg/ml, no bFGF, medium 14296 ± 2490
[10] = expt 2 (first, r11), 100 μg/ml, 10 ng/ml bFGF, medium 29079 ± 2506
[11] = expt 2 (first, r11), 100 μg/ml, no bFGF, medium 14296 ± 2490
[12] = expt 2 (second, r19), 1 μg/ml, 10 ng/ml bFGF, medium 52808 ± 4092
[13] = expt 2 (second, r19), 1 μg/ml, no bFGF, medium 6780 ± 713
[14] = expt 2 (second, r19), 10 μg/ml, 10 ng/ml bFGF, medium 52808 ± 4092
[15] = expt 2 (second, r19), 10 μg/ml, no bFGF, medium 6780 ± 713
[16] = expt 2 (second, r19), 100 μg/ml, 10 ng/ml bFGF, medium 52808 ± 4092
[17] = expt 2 (second, r19), 100 μg/ml, no bFGF, medium 6780 ± 713

O=C1CCC(N2C(=O)c3ccccc3C2=O)C(=O)N1 (stereo not drawn) [thalidomide, reference compound]
EC growth in vitro (in words) [1]: do not affect EC growth in vitro
effect of other inhibitors of angiogenesis on ICAM-1 expression (in words) [2]: did not affect ICAM-1 expression

SIQDLNVSMKLFRKQAKWKLIVKLNDGRELSLD [βpep-14]
Endotoxin Neutralization, % neutralization [3]: 38.8 n = 1%
Bactericidal Activity, % killing [4]: 0%
Bactericidal Activity, % killing at the effective dose [4]: 39.9%
Bactericidal Activity, Ed, Effective M dose [4]: 960 nM
EC proliferation in vitro (in words) [1]: angiostatic
(3H)-thymidine incorporation [1, 6]: 28695 ± 1062 cpm
(3H)-thymidine incorporation [1, 7]: 14184 ± 1775 cpm
(3H)-thymidine incorporation [1, 8]: 29530 ± 1608 cpm
(3H)-thymidine incorporation [1, 9]: 9886 ± 2114 cpm
(3H)-thymidine incorporation [1, 10]: 6585 ± 132 cpm
(3H)-thymidine incorporation [1, 11]: 3774 ± 299 cpm
(3H)-thymidine incorporation [1, 12]: 48443 ± 2700 cpm
(3H)-thymidine incorporation [1, 13]: 7214 ± 1668 cpm
(3H)-thymidine incorporation [1, 14]: 52126 ± 1258 cpm
(3H)-thymidine incorporation [1, 15]: 6074 ± 899 cpm
(3H)-thymidine incorporation [1, 16]: 7663 ± 715 cpm
(3H)-thymidine incorporation [1, 17]: 1062 ± 325 cpm
bFGF mediated downregulation of ICAM-1 (in words) [2]: complete block of bFGF mediated downregulation

SIQDLNVSMKLFRKQAKWKIIAKLNDGRELSLD [βpep-16]
Endotoxin Neutralization, % neutralization [3]: 100%
Endotoxin Neutralization, % at the effective dose ([3]; at the Ed): 16.5%
Endotoxin Neutralization, Ed, Effective M dose ([3]; dose at which the % in brackets was found): 1.2 µM
Bactericidal Activity, % killing [4]: 0%
Bactericidal Activity, % killing at the effective dose [4]: 24.3%
Bactericidal Activity, Ed, Effective M dose [4]: 960 nM
EC proliferation in vitro (in words) [1]: angiostatic
(3H)-thymidine incorporation [1, 6]: 35447 ± 2621 cpm
(3H)-thymidine incorporation [1, 7]: 15039 ± 2020 cpm
(3H)-thymidine incorporation [1, 8]: 33663 ± 2572 cpm
(3H)-thymidine incorporation [1, 9]: 11881 ± 2545 cpm
(3H)-thymidine incorporation [1, 10]: 7852 ± 875 cpm
(3H)-thymidine incorporation [1, 11]: 4929 ± 749 cpm
(3H)-thymidine incorporation [1, 12]: 47727 ± 447 cpm
(3H)-thymidine incorporation [1, 13]: 7450 ± 737 cpm
(3H)-thymidine incorporation [1, 14]: 44919 ± 2081 cpm
(3H)-thymidine incorporation [1, 15]: 6148 ± 1370 cpm
(3H)-thymidine incorporation [1, 16]: 27071 ± 3277 cpm
(3H)-thymidine incorporation [1, 17]: 2669 ± 370 cpm
bFGF mediated downregulation of ICAM-1 (in words) [2]: complete block of bFGF mediated downregulation

SIQFLKVSLNLDRKQAKWKIIVKLNDGRELSLD [βpep-24]
control of endothelial cell proliferation (in words) [5]: very good at controlling cell proliferation
effectiveness at decreasing endothelial cell growth ([5]; 0.26 micromolar): about 30%
